Data published in US20080145313A1, “Compositions and Methods for the Treatment and Prevention of Neoplastic Disorders” (Genesis Research & Development Corporation Limited, priority 2006, published 2008).

System: target transcript mRNA in A549 cells
Experiment: Level of mRNA of target transcript in A549 cells by quantitative RT-PCR (Tables 12 and 13)
Type: cell-based, human
Conditions: 24 h post-transfection; for mRNA knockdown of energy and metabolism gene target transcript, 10 nM: 10 nM siRNA
Method: A549 cells were transfected as described before with 0.1, 1.0 and 10 nM siRNA as listed in Tables 10 and 11 and the relative mRNA levels quantified 24 h post-transfection. RNA was purified from cells using Trizol® extraction as per the manufacturer's protocol (Invitrogen). cDNA was prepared by digesting approximately 200 ng purified RNA with DNAse I (Invitrogen) for 15 minutes at room temperature, followed by 15 minutes at 65° C. in the presence of 25 mM EDTA. 30 ng random primers were added and incubated for 10 minutes at 65° C., 1 minute on ice; Superscript® III polymerase (Invitrogen) was added in presence of 5 nM DTT (Invitrogen) and 1 mM deoxyribonucleotides (Invitrogen), and the reaction incubated at 25° C. for 5 minutes, followed by an hour at 50° C. cDNA was diluted 1:3 in 10 mM Tris pH 7.0, and quantitative RT-PCR carried out on an ABI Prism 7900HT (Applied Biosciences, Inc., Foster City, Calif.) using FastStart TaqMan SYBRGreen (Roche, Basel, Switzerland) or Platinum SYBR Green (Invitrogen) and 360 nM of the primers specific for gene targets and housekeeping genes HPRT and Lamin. Reduction in target mRNA levels following siRNA transfection are given in Tables 12 and 13, together with the gene specific primer sequences. Primer sequences used for the housekeeping genes HPRT and Lamin are given in SEQ ID NO: 4885-4888.

Row | Substance | mRNA knockdown of energy and metabolism gene target transcript, 0.1 nM (0.1 nM siRNA) | mRNA knockdown of energy and metabolism gene target transcript, 1 nM (1 nM siRNA) | mRNA knockdown of energy and metabolism gene target transcript, 10 nM | mRNA knockdown of transporter gene target transcript, 0.1 nM (0.1 nM siRNA) | mRNA knockdown of transporter gene target transcript, 1 nM (1 nM siRNA)
1 | 3545 (ACTACCGCGAGCTGCGCTGGTT; chemistry not given here) [compound 3545] | ++ (70-90% mRNA knockdown) | ++ (70-90% mRNA knockdown) | +++ (>90% mRNA knockdown) |  | 
2 | 1692 (TTTGCCAACAGGATCTTCGGCCCCATCTG; chemistry not given here) [compound 1692] | − (<50% mRNA knockdown) | − (<50% mRNA knockdown) |  |  | 
3 | 3593 (TTGCCAAAAACAGAGGAGCAAGATACAGGC; chemistry not given here) [compound 3593] | − (<50% mRNA knockdown) | + (50-70% mRNA knockdown) |  |  | 
4 | 3555 (ACGGATGTTGGGATCATTATTA; chemistry not given here) [compound 3555] | ++ (70-90% mRNA knockdown) | ++ (70-90% mRNA knockdown) |  |  | 
5 | 1697 (GAACGTGAAGCTCCCTGACGCCTA; chemistry not given here) [compound 1697] | ++ (70-90% mRNA knockdown) | + (50-70% mRNA knockdown) |  |  | 
6 | 3553 (TGAAGGCAACTACCGCGAGCTGCGCTGGTT; chemistry not given here) [compound 3553] | ++ (70-90% mRNA knockdown) | ++ (70-90% mRNA knockdown) |  |  | 
7 | 3579 (GTGAAGCGGTTTTTCTCCAAGTACTC; chemistry not given here) [compound 3579] | ++ (70-90% mRNA knockdown) | +++ (>90% mRNA knockdown) |  |  | 
8 | 3543 (TGGAGCCAAGGGTAGGAGCCCTACACTAGG; chemistry not given here) [compound 3543] | ++ (70-90% mRNA knockdown) | ++ (70-90% mRNA knockdown) |  |  | 
9 | 3546 (AACTACCGCGAGCTGCGCTGGTT; chemistry not given here) [compound 3546] | + (50-70% mRNA knockdown) | ++ (70-90% mRNA knockdown) | +++ (>90% mRNA knockdown) |  | 
10 | 3547 (CAACTACCGCGAGCTGCGCTGGTT; chemistry not given here) [compound 3547] | ++ (70-90% mRNA knockdown) | ++ (70-90% mRNA knockdown) | +++ (>90% mRNA knockdown) |  | 
11 | 3562 (TGCGGCTACGGATGTTGGGATCATTATTA; chemistry not given here) [compound 3562] | ++ (70-90% mRNA knockdown) | +++ (>90% mRNA knockdown) |  |  | 
12 | SEQ ID NO: 4914: siRNA targeting SLC19A2 (ThTr1) (chain 1 TTATATAACCAACTGCAAACACAGC; chain 2 UUAUAUAACCAACUGCAAACACAGC; chemistry not given here; one strand in two spellings) |  |  |  | ++ (70-90% mRNA knockdown) | +++ (>90% mRNA knockdown)
13 | 3584 (ACAGAGGAGCAAGATACAGGC; chemistry not given here) [compound 3584] | ++ (70-90% mRNA knockdown) | ++ (70-90% mRNA knockdown) |  |  | 
14 | 3558 (GCTACGGATGTTGGGATCATTATTA; chemistry not given here) [compound 3558] | − (<50% mRNA knockdown) | ++ (70-90% mRNA knockdown) |  |  | 
15 | 3544 (CTACCGCGAGCTGCGCTGGTT; chemistry not given here) [compound 3544] | ++ (70-90% mRNA knockdown) | ++ (70-90% mRNA knockdown) |  |  | 
16 | 3592 (TGCCAAAAACAGAGGAGCAAGATACAGGC; chemistry not given here) [compound 3592] | − (<50% mRNA knockdown) | + (50-70% mRNA knockdown) |  |  | 
17 | 3539 (GCCAAGGGTAGGAGCCCTACACTAGG; chemistry not given here) [compound 3539] | − (<50% mRNA knockdown) | − (<50% mRNA knockdown) | − (<50% mRNA knockdown) |  | 
18 | 3594 (CAGGAAGATCCTGCTCATCAG; chemistry not given here) [compound 3594] | − (<50% mRNA knockdown) | + (50-70% mRNA knockdown) |  |  | 
19 | 3536 (AAGGGTAGGAGCCCTACACTAGG; chemistry not given here) [compound 3536] | ++ (70-90% mRNA knockdown) | +++ (>90% mRNA knockdown) | +++ (>90% mRNA knockdown) |  | 
20 | 3534 (GGGTAGGAGCCCTACACTAGG; chemistry not given here) [compound 3534] | ++ (70-90% mRNA knockdown) | ++ (70-90% mRNA knockdown) |  |  | 
21 | 3597 (CAACAGGAAGATCCTGCTCATCAG; chemistry not given here) [compound 3597] | + (50-70% mRNA knockdown) | ++ (70-90% mRNA knockdown) |  |  | 
22 | 1688 (CCAACAGGATCTTCGGCCCCATCTG; chemistry not given here) [compound 1688] | + (50-70% mRNA knockdown) | ++ (70-90% mRNA knockdown) |  |  | 
23 | 3550 (AGGCAACTACCGCGAGCTGCGCTGGTT; chemistry not given here) [compound 3550] | ++ (70-90% mRNA knockdown) | ++ (70-90% mRNA knockdown) | +++ (>90% mRNA knockdown) |  | 
24 | 3564 (GCAAGAACGGTGGGATTTACT; chemistry not given here) [compound 3564] | ++ (70-90% mRNA knockdown) | +++ (>90% mRNA knockdown) |  |  | 
